Experiments:
human polyclonal IgG = assay: Isothermal titration calorimetry (ITC) of IgG:ligand binding in solution; details: 25° C, PBS pH 7.4, peptide in solution, independent binding model
Procedure: Measurements of IgG-binding affinity in solution by isothermal titration calorimetry (ITC): Experimental determination of the binding free energy of the IgG:WQRHGI (SEQ ID NO:1) complex was performed by ITC using a Nano ITC Low Volume calorimeter (TA Instruments, New Castle, DE). […] All solutions were filtered through a 0.22 p.m syringe filter prior to use. Ten injections were performed for each measurement. Background energy from peptide dilution was determined by performing 10 injections of 5 μL of a 2 mg/mL solution of WQRHGI (SEQ ID NO:1) in PBS pH 7.4. The titration data were analyzed using NanoAnalyze software (TA Instruments) and plotted using an independent fitting, which fits the resultant Wiseman plot with parameters corresponding to a non-competitive single-site binding phenomenon in order to calculate the binding affinity (K(D(ITC)), and the stoichiometry (N) of the interaction. A constant blank was also utilized in the fitting to account for the heat of dilution of the IgG substrate.
Characterization of binding affinity for IgG-binding peptide variants WQRHGI (SEQ ID NO:1) and MWRGWQ (SEQ ID NO:2) in non-competitive conditions: Candidate peptide ligands WQRHGI (SEQ ID NO:1) and MWRGWQ (SEQ ID NO:2) were selected for experimental evaluation of IgG binding in non-competitive conditions (pure IgG in solution). […]

CHO HCPs = assay: CHO HCP-specific ELISA, log removal value of HCPs; set-up: species or system Chinese hamster
Procedure: Purification of IgG from CHO Cell culture fluids using MWRGWQC (SEQ ID NO:31)- and WQRHGIC (SEQ ID NO:30)—Workbeads: A volume of 0.1 mL of resin was packed in a PEEK microbore column, installed on a Waters 2695 unit, and equilibrated with PBS, pH 7.4. All chromatographic buffers were filtered through a compatible 0.2 μm filter prior to use. A volume of 100 μL of solution of human polyclonal IgG at 1 mg/mL in a CHO cell culture fluid at 0.205 mg/mL CHO HCPs was injected in the column at 0.02 mL/min (RT: 5 minutes). Following injection, the resin was washed with PBS at 0.2 mL/min and, subsequently, with 100 mM NaCl in PBS at 0.2 mL/min. Elution was then conducted with […] pH 4. An acidic cleaning step was conducted in 0.1 M glycine pH 2.5 to remove any proteins still bound. The absorbance of the effluent was monitored by UV/Vis spectrophotometry at 280 nm. Fractions were collected and adjusted to neutral pH. Total protein concentration was measured by BCA assay. All collected fractions were also analyzed via SDS PAGE under reducing conditions. The gel was stained by silver staining, and the overall IgG purity in the eluted fractions was determined by densitometric analysis using ImageJ software. Finally, the feed and eluted fractions were analyzed using a CHO-specific ELISA kit to determine the log removal value (LRV) of HCPs. […]

Kd (human polyclonal IgG): 58.8 µM
Substance: WQRHGI
HCP clearance (CHO HCPs): greater than 99%
HCP LRV (CHO HCPs; IgG 1 mg/mL in CHO fluid with 0.205 mg/mL HCPs, elution pH 4): 2.7

From patent US20230399358A1, “IMMUNOGLOBULIN PURIFICATION PEPTIDES AND THEIR USE” (North Carolina State University, priority 2019, published 2023)
